What is called Ki is a measure of affinity in units of concentration, obtained from inhibition or displacement.

Assay [1] deals with HCV NS3 protease genotype 3a (3A-1) (Hepatitis C virus genotype 3a, UniProt Q81258). In words: HCV NS3 protease time-resolved fluorescence (TRF) assay, genotype 3a. The format is biochemical. As to conditions: Ki 3a. The method, boiled down: (§1)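 IC50 values derive from 4-parameter fitting of TRF signal after a 6 h room-temperature cleavage of 25 nM peptide substrate by NS3/NS4A that had been pre-incubated 10 min with compound.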

The target of assay [2] is T1, HCV genotype 1b (BK) NS3 modified enzyme with a R155K mutation (Hepatitis C virus genotype 1b, UniProt P26663, R1181K).
T1 construct: HCV genotype 1b (BK) NS3 modified enzyme
The assay can be described thus: HCV NS3 protease time-resolved fluorescence (TRF) assay, genotype 1b R155K. The format is biochemical. The conditions noted are these: Ki 1b R155K, genotype 1b (BK) NS3 R155K; single value. An outline of the steps:
as §1

In the case of `C=C[C@@H]1C[C@]1(NC(=O)[C@@H]1C[C@@H]2CN1C(=O)[C@H](C1CCCCC1)NC(=O)O[C@@H]1C[C@H]1CCCCCc1c(nc3ccccc3c1OCCCN1CCN(S(C)(=O)=O)CC1)O2)C(=O)NS(=O)(=O)C1(C)CC1` [Example 165, (1aR,5S,8S,10R,22aR)-5-cyclohexyl-N-[(1R,2S)-2-ethenyl-1-{[(1-methylcyclopropyl)sulfonyl]carbamoyl}cyclopropyl]-17-{3-[4-(methylsulfonyl)piperazin-1-yl]propoxy}-3,6-dioxo-1,1a,3,4,5,6,9,10, 18,19,20,21,22,22a-tetradecahydro-8H-7,10-methanocyclopropa[18,19][1,10,3,6] dioxadiazacyclononadecino[11,12-b] quinoline-8-carboxamide], the inhibition constant (Ki) in assay [1] turned out to be 2.8 nM; in assay [2] it was 0.24 nM.

For `C=C[C@@H]1C[C@]1(NC(=O)[C@@H]1C[C@@H]2CN1C(=O)[C@H](C1CCCCC1)NC(=O)O[C@@H]1C[C@H]1CCCCCc1c(nc3ccccc3c1OCCCN1CCC(S(C)(=O)=O)C1)O2)C(=O)NS(=O)(=O)C1(C)CC1` (stereo partly drawn) [Example 166, (1aR,5S,8S,10R,22aR)-5-cyclohexyl-N-[(1R,2S)-2-ethenyl-1-{[(1-methylcyclopropyl)sulfonyl]carbamoyl}cyclopropyl]-17-{3-[3-(methylsuflonyl)pyrrolidin-1-yl]propoxy}-3,6-dioxo-1,1a,3,4,5,9,10, 18,19,20,21,22,22a-tetradecahydro-8H-7,10-methanocyclopropa[18,19][1,10,3,6] dioxadiazacyclononadecino[11,12-b] quinoline-8-carboxamide], the Ki is 2.2 nM in assay [1] and 0.11 nM in assay [2].

Take `C=C[C@@H]1C[C@]1(NC(=O)[C@@H]1C[C@@H]2CN1C(=O)[C@H](C1CCCCC1)NC(=O)O[C@@H]1C[C@H]1CCCCCc1c(nc3ccccc3c1OCCCN1CCC(C(F)(F)F)CC1)O2)C(=O)NS(=O)(=O)C1(C)CC1` [Example 167]: the values for the Ki in assay [1] and in assay [2] were 41 nM and 1.3 nM, respectively.

As for `C=C[C@@H]1C[C@]1(NC(=O)[C@@H]1C[C@@H]2CN1C(=O)[C@H](C1CCCCC1)NC(=O)O[C@@H]1C[C@H]1CCCCCc1c(nc3ccccc3c1OCCCN1CCCOCC1)O2)C(=O)NS(=O)(=O)C1(C)CC1` [Example 168, (1aR,5S,8S,10R,22aR)-5-cyclohexyl-N-[(1R,2S)-2-ethenyl-1-{[(1-methylcyclopropyl)sulfonyl]carbamoyl}cyclopropyl]-17-[3-(1,4-oxazepan-4-yl)propoxy]-3,6-dioxo-1,1a,3,4,5,6,9,10,18,19,20,21, 22,22a-tetradeca hydro-8H-7,10-methanocyclopropa[18,19][1,10,3,6] dioxadiazacyclononadecino[11,12-b] quinoline-8-carboxamide], the figures for the Ki in assay [1] and in assay [2] were 1.3 nM and 0.078 nM, respectively.

On to `C=C[C@@H]1C[C@]1(NC(=O)[C@@H]1C[C@@H]2CN1C(=O)[C@H](C1CCCCC1)NC(=O)O[C@@H]1C[C@H]1CCCCCc1c(nc3ccccc3c1OCCCN1CC[C@@H](O)C1)O2)C(=O)NS(=O)(=O)C1(C)CC1` [Example 169, (1aR,5S,8S,10R,22aR)-5-cyclohexyl-N-[(1R,2S)-2-ethenyl-1-{[(1-methylcyclopropyl)sulfonyl]carbamoyl}cyclopropyl]-17-{3-[(3R)-3-hydroxypyrrolidin-1-yl]propoxy}-3,6-dioxo-1,1a,3,4,5,6,9,10, 18,19,20,21,22,22a-tetradeca hydro-8H-7,10-methanocyclopropa[18,19][1,10,3,6] dioxadiazacyclononadecino[11,12-b] quinoline-8-carboxamide], for which the values for the Ki in assay [1] and in assay [2] were 0.75 nM and 0.042 nM, respectively.

On to `C=C[C@@H]1C[C@]1(NC(=O)[C@@H]1C[C@@H]2CN1C(=O)[C@H](C1CCCCC1)NC(=O)O[C@@H]1C[C@H]1CCCCCc1c(nc3ccccc3c1OCCCN1CCC(F)(F)CC1)O2)C(=O)NS(=O)(=O)C1(C)CC1` [Example 170], for which the Ki in assay [1] was found to be 21 nM; in assay [2] it was 1.1 nM.

Consider `C=C[C@@H]1C[C@]1(NC(=O)[C@@H]1C[C@@H]2CN1C(=O)[C@H](C1CCCCC1)NC(=O)O[C@@H]1C[C@H]1CCCCCc1c(nc3ccccc3c1OCCCSc1nncn1C)O2)C(=O)NS(=O)(=O)C1(C)CC1` [Example 171, (1aR,5S,8S,10R,22aR)-5-cyclohexyl-N-[(1R,2S)-2-ethenyl-1-{[(1-methylcyclopropyl)sulfonyl]carbamoyl}cyclopropyl]-17-{3-[(4-methyl-4H-1,2,4-triazol-3-yl)sulfanyl]propoxy}-3,6-dioxo-1,1a,3,4,5,6,9,10, 18,19,20,21,22,22a-tetradecahydro-8H-7,10-methanocyclopropa[18,19][1,10,3,6] dioxadiazacyclononadecino[11,12-b] quinoline-8-carboxamide], for which the Ki in assay [1] was 2 nM; in assay [2], 0.099 nM.

For the molecule `C=C[C@@H]1C[C@]1(NC(=O)[C@@H]1C[C@@H]2CN1C(=O)[C@H](C1CCCCC1)NC(=O)O[C@@H]1C[C@H]1CCCCCc1c(nc3ccccc3c1OCCCSc1nccs1)O2)C(=O)NS(=O)(=O)C1(C)CC1` [Example 172], the Ki in assay [1] came to 14 nM; in assay [2] it was 1.1 nM.

Consider `C=C[C@@H]1C[C@]1(NC(=O)[C@@H]1C[C@@H]2CN1C(=O)[C@H](C(C)(C)C)NC(=O)O[C@@H]1C[C@H]1CCCCCc1c(nc3ccccc3c1OCCN1CCOC(C)(C)C1)O2)C(=O)NS(=O)(=O)C1(C)CC1` [Example 173, (1aR,5S,8S,10R,22aR)-5-tert-butyl-17-[2-(2,2-dimethylmorpholin-4-yl)ethoxy]-N-[(1R,2S)-2-ethenyl-1-{[(1-methylcyclopropyl)sulfonyl]carbamoyl}cyclopropyl]-3,6-dioxo-1,1a,3,4,5,6,9,10,18,19,20,21, 22,22a-tetradecahydro-8H-7,10-methanocyclopropa[18,19][1,10,3,6] dioxadiazacyclononadecino[11,12-b] quinoline-8-carboxamide], for which the Ki stood at 9.5 nM in assay [1] and 0.34 nM in assay [2].

With `C=C[C@@H]1C[C@]1(NC(=O)[C@@H]1C[C@@H]2CN1C(=O)[C@H](C(C)(C)C)NC(=O)O[C@@H]1C[C@H]1CCCCCc1c(nc3ccccc3c1OCCN1CC(O)C1)O2)C(=O)NS(=O)(=O)C1(C)CC1` [Example 174, (1aR,5S,8S,10R,22aR)-5-tert-butyl-N-[(1R,2S)-2-ethenyl-1-{[(1-methylcyclopropyl)sulfonyl]carbamoyl}cyclopropyl]-17-[2-(3-hydroxyazetidin-1-yl)ethoxy]-3,6-dioxo-1,1a,3,4,5,6,9,10,18,19,20,21,22,22a-tetradecahydro-8H-7,10-methanocyclopropa[18,19][1,10,3,6] dioxadiazacyclononadecino[11,12-b] quinoline-8-carboxamide], the Ki in assay [1] is 1.1 nM; in assay [2], 0.057 nM.

With `C=C[C@@H]1C[C@]1(NC(=O)[C@@H]1C[C@@H]2CN1C(=O)[C@H](C(C)(C)C)NC(=O)O[C@@H]1C[C@H]1CCCCCc1c(nc3ccccc3c1OCCN1CCC(C)(O)CC1)O2)C(=O)NS(=O)(=O)C1(C)CC1` [Example 175, (1aR,5S,8S,10R,22aR)-5-tert-butyl-N-[(1R,2S)-2-ethenyl-1-{[(1-methylcyclopropyl)sulfonyl]carbamoyl}cyclopropyl]-17-[2-(4-hydroxy-4-methylpiperidin-1-yl)ethoxy]-3,6-dioxo-1,1a,3,4,5,6,9,10,18,19,20,21,22,22a-tetradeca hydro-8H-7,10-methanocyclopropa[18,19][1,10,3,6] dioxadiazacyclononadecino[11,12-b] quinoline-8-carboxamide], the Ki turned out to be 0.89 nM in assay [1] and 0.091 nM in assay [2].

On to `C=C[C@@H]1C[C@]1(NC(=O)[C@@H]1C[C@@H]2CN1C(=O)[C@H](C(C)(C)C)NC(=O)O[C@@H]1C[C@H]1CCCCCc1c(nc3ccccc3c1OCCN1CCS(=O)(=O)CC1)O2)C(=O)NS(=O)(=O)C1(C)CC1` [Example 176, (1aR,5S,8S,10R,22aR)-5-tert-butyl-17-[2-(1,1-dioxidothiomorpholin-4-yl)ethoxy]-N-[(1R,2S)-2-ethenyl-1-{[(1-methylcyclopropyl)sulfonyl]carbamoyl}cyclopropyl]-3,6-dioxo-1,1a,3,4,5,6,9,10,18,19,20,21,22,22a-tetradecachydro-8H-7,10-methanocyclopropa[18,19][1,10,3,6] dioxadiazacyclononadecino[11,12-b] quinoline-8-carboxamide], for which the Ki is 1.3 nM in assay [1] and 0.1 nM in assay [2].

Turning to `C=C[C@@H]1C[C@]1(NC(=O)[C@@H]1C[C@@H]2CN1C(=O)[C@H](C(C)(C)C)NC(=O)O[C@@H]1C[C@H]1CCCCCc1c(nc3ccccc3c1OCCNC(C)(C)C)O2)C(=O)NS(=O)(=O)C1(C)CC1` [Example 177, (1aR,5S,8S,10R,22aR)-5-tert-butyl-17-[2-(tert-butylamino)ethoxy]-N-[(1R,2S)-2-ethenyl-1-{[(1-methylcyclopropyl)sulfonyl]carbamoyl}cyclopropyl]-3,6-dioxo-1,1a,3,4,5,6,9,10, 18,19,20,21,22,22a-tetradeca hydro-8H-7,10-methanocyclopropa[18,19][1,10,3,6] dioxadiazacyclononadecino[11,12-b] quinoline-8-carboxamide], the Ki in assay [1] came to 1.1 nM; in assay [2], 0.14 nM.

For `C=C[C@@H]1C[C@]1(NC(=O)[C@@H]1C[C@@H]2CN1C(=O)[C@H](C(C)(C)C)NC(=O)O[C@@H]1C[C@H]1CCCCCc1c(nc3ccccc3c1OCCNC1CC1)O2)C(=O)NS(=O)(=O)C1(C)CC1` [Example 178, (1aR,5S,8S,10R,22aR)-5-tert-butyl-17-[2-(cyclopropylamino)ethoxy]-N-[(1R,2S)-2-ethenyl-1-{[(1-methylcyclopropyl)sulfonyl]carbamoyl}cyclopropyl]-3,6-dioxo-1,1a,3,4,5,6,9,10, 18,19,20,21,22,22a-tetradeca hydro-8H-7,10-methanocyclopropa[18,19][1,10,3,6] dioxadiazacyclononadecino[11,12-b] quinoline-8-carboxamide], the Ki in assay [1] was determined as 3.6 nM; in assay [2], 0.14 nM.

The values above are taken from US9328138B2 (priority 2011, dated 2016).
